Data on 1 compound can be found in ChEMBL document CHEMBL4828717, “Synthetic cajaninstilbene acid derivatives eradicate methicillin-resistant Staphylococcus aureus persisters and biofilms” (Eur J Med Chem, 2021).

One may read the MIC as the least concentration at which growth counts as inhibited.

Each structure is given as a SMILES string. Activity calls are given as the source filed them. No cut-off for these calls is given here.

Data set [1] deals with Staphylococcus aureus. The data set is described as follows: Antibacterial activity against methicillin resistant Staphylococcus aureus ATCC 62202 assessed as reduction in microbial growth after 16 to 18 hrs by microbroth dilution method. The format is functional. To be noted: time 16-18 hrs. (Broth dilution looks for growth in wells or tubes with falling amounts of substance.)

The subject of data set [2] is Staphylococcus aureus. The experiment in a line: Antibacterial activity against methicillin resistant Staphylococcus aureus ATCC 52056 assessed as reduction in microbial growth after 16 to 18 hrs by microbroth dilution method. The conditions noted are these: time 16-18 hrs. The class given is functional.
Data set [3] concerns Staphylococcus aureus. The experiment in a line: Antibacterial activity against methicillin resistant Staphylococcus aureus ATCC513045 assessed as reduction in microbial growth after 16 to 18 hrs by microbroth dilution method. To be noted: time 16-18 hrs. The format is functional.
Data set [4] relates to Staphylococcus aureus. The data set is described as follows: Antibacterial activity against methicillin resistant Staphylococcus aureus ATCC49025 assessed as reduction in microbial growth after 16 to 18 hrs by microbroth dilution method. The class given is functional. The conditions noted are these: time 16-18 hrs.
The subject of data set [5] is Staphylococcus aureus. The experiment in a line: Antibacterial activity against methicillin resistant Staphylococcus aureus ATCC48966 assessed as reduction in microbial growth after 16 to 18 hrs by microbroth dilution method. The class given is functional. To be noted: time 16-18 hrs.
Data set [6] deals with Staphylococcus aureus. The data set is described as follows: Antibacterial activity against methicillin resistant Staphylococcus aureus ATCC48706 assessed as reduction in microbial growth after 16 to 18 hrs by microbroth dilution method. To be noted: time 16-18 hrs. The class given is functional.
A short description of data set [7]: Cytotoxicity against mouse RAW264.7 cells assessed as cell viability at 10 ug/ml measured after 24 hrs by MTT assay. The format is cell-based. To be noted: RAW264.7 cells, at 10 µg/mL, read-out: Activity. For orientation: Tetrazolium dyes change colour on reduction, which living cells bring about.
For data set [8], the system named is Cell membrane. The experiment in a line: Induction of cell membrane permeabilization in methicillin resistant Staphylococcus aureus ATCC 43300 assessed as fluorescence intensity at 0.5 to 2 times of MIC measured after 30 mins by propidium iodide staining based fluorescence assay. The class given is subcellular.
The subject of data set [9] is Cell membrane. The data set is described as follows: Induction of cell membrane damage in Staphylococcus aureus ATCC 43300 at 0.5 times MIC after 90 mins by confocal laser scanning microscopy analysis. The format is subcellular.
The test system of data set [10] is Cell membrane. The data set is described as follows: Induction of cell membrane damage in Staphylococcus aureus ATCC 43300 at 1 times MIC after 90 mins by confocal laser scanning microscopy analysis.
The subject of data set [11] is Cell membrane. The experiment in a line: Induction of cell membrane damage in Staphylococcus aureus ATCC 43300 at 2 times MIC after 90 mins by confocal laser scanning microscopy analysis.
Data set [12] has as its system Staphylococcus aureus. The experiment in a line: Induction of morphological changes in Staphylococcus aureus ATCC 43300 assessed as membrane damage at 8 times MIC after 90 mins by TEM analysis. The class given is functional, organism-based.
Data set [13] relates to Cell membrane. The experiment in a line: Induction of cell membrane damage in methicillin resistant Staphylococcus aureus ATCC 43300 assessed as increase in ATP leakage […] at 0.5 times MIC measured every 30 mins for 6 hrs by Bactiter-glo assay. The class given is subcellular.
The subject of data set [14] is Cell membrane. The data set is described as follows: Induction of cell membrane damage in methicillin resistant Staphylococcus aureus ATCC 43300 assessed as increase in ATP leakage […] at 1 times MIC measured every 30 mins for 6 hrs by Bactiter-glo assay.
Data set [15] deals with Staphylococcus aureus. The experiment in a line: Synergistic antimicrobial activity against Staphylococcus aureus ATCC 43300 assessed as FICI at 0.5 times MIC after 24 hrs in presence of 64 ug/ml piperacillin by checkerboard assay. The format is functional.
A short description of data set [16]: Toxicity in BALB/c mouse infected with methicillin-resistant Staphylococcus aureus ATCC 43300 assessed as damage in heart at 50 to 200 mg/kg, sc administered every 24 hrs for 4 days by H&E staining based light microscopic analysis. The class given is organism-based. To be noted: in vivo, dose 50-200 mg/kg.

Take `CC(C)=CCc1c(OCCF)cc(/C=C/c2ccc(F)cc2)c(C(=O)O)c1O`: the MIC in data set [1], in data set [2], in data set [3], in [4], in data set [5] and in [6] was 4 µg/mL in each case. Moreover, in [7], the viability at 24 h, 10 ug/ml was > 60%. For the same compound, the Activity result in data set [8] is “Dose-Dependent Effect”; in [16], “Non-Toxic”. Besides, the result in data set [9], in data set [10], in data set [11], in data set [12], in [13] and in data set [14] was Active. Besides, the “fractional inhibitory concentration index (FICI)” value in data set [15] stood at 0.25.
